Measured values reported in patent publication US8158587B2, “Compound having histone deacetylase-inhibiting activity, and pharmaceutical composition comprising the compound as an active ingredient” (Kyushu Institute of Technology, priority 2006, dated 2012).
pIC50: −log10 of the molar value.

Key:
[1] = biological target: T1, murine HDAC6 (Mus musculus, UniProt Q9Z2V5); experiment: HDAC-inhibiting activity, coumarin-labeled acetylated histone peptide assay; assay type: biochemical; settings: murine HDAC6 from transfected 293T cells; 37° C., 30 minutes
T1 construct: made in house; host or cells: 293T cells (transient transfection, anti-FLAG immunoprecipitation, FLAG peptide elution)
T1 sequence (Q9Z2V5 1-1149): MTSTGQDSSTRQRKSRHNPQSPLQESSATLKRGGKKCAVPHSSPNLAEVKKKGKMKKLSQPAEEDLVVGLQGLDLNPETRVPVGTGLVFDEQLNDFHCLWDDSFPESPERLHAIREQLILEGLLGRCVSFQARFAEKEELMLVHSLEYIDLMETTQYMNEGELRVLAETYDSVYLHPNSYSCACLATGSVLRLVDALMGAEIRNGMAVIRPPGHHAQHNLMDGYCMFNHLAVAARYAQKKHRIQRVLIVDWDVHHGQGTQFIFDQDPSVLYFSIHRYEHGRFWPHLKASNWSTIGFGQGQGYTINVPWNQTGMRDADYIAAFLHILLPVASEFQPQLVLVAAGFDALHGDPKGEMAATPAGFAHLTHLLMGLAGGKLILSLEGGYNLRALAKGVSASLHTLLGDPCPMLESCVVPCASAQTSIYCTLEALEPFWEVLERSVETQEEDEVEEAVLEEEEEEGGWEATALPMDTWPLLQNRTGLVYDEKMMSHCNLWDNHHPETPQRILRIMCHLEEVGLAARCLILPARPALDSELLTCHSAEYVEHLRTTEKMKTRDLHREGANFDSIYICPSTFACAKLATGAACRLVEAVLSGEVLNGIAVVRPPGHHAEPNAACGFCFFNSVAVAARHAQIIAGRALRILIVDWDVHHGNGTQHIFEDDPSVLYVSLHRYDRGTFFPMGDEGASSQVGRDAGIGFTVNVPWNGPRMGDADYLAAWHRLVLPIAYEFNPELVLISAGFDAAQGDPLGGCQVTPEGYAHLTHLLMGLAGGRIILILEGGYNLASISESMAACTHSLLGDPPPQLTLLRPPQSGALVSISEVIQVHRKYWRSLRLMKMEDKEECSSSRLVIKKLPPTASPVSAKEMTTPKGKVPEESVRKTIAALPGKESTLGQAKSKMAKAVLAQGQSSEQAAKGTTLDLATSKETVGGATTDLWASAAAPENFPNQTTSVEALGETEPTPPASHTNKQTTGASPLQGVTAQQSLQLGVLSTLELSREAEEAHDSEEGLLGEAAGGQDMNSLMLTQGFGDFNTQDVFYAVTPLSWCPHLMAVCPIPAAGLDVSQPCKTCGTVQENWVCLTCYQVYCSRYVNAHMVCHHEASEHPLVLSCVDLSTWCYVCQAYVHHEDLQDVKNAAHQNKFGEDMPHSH

[2] = system: colon cancer cell line KM-12; experiment: Human cancer cell line panel, proliferation (sulforhodamine B); assay type: cell-based; settings: KM-12, 2 days of cultivation; read-out: 50% inhibitory concentration, proliferation
[3] = system: kidney cancer cell line ACHN; experiment: as above; assay type: cell-based; settings: 2 days of cultivation, read-out: 50% inhibitory concentration, proliferation

Row | pIC50 [1] | pIC50 [2] | pIC50 [3] | Compound
1 | 5.85 | – | – | CC1(C)NC(=O)[C@H](CCCCCSCc2ccncc2)NC(=O)[C@H]2CCCN2C(=O)[C@H](Cc2ccccc2)NC1=O [Ky-26, cyclo(-L-Am7(4-pyridylmethyl)-Aib-L-Phe-D-Pro-)]
2 | – | ≥ 7.00 | ≥ 7.00 | CC(=O)CSCCCCC[C@@H]1NC(=O)[C@H]2CCCN2C(=O)[C@H](Cc2ccccc2)NC(=O)C(C)(C)NC1=O [Ky-72, cyclo(-L-Am7(acetonyl)-Aib-L-Phe-D-Pro-)]
